Data reported in the NIST ThermoML archive (doi:10.1021/acs.jced.8b00157).

Assay: an = ratio of the nth substance listed
Details: 100 kPa, Liquid, Buoyancy - hydrostatic balance

[F][Al]([F])[F] [aluminum fluoride] + [F-].[K+]
mass density [kg/m3]
Details | a2 = 1.3 | a2 = 1.5
1068.5 K | 1772 | –
1068.7 K | – | 1790
1069.1 K | – | 1790
1069.3 K | 1772 | –
1069.4 K | 1771 | –
1069.6 K | 1771 | 1790
1069.9 K | – | 1789
1070.1 K | 1771 | –
1070.2 K | – | 1789
1070.5 K | 1771 | –
1070.7 K | – | 1788
1071.1 K | – | 1788
1071.2 K | 1770 | –
1071.3 K | 1770 | –
1071.4 K | – | 1788
1071.9 K | 1769 | 1787
1072 K | 1769 | –
1072.3 K | – | 1787
1072.6 K | 1768 | –
1072.7 K | 1768 | 1787
1073 K | – | 1787
1073.4 K | 1768 | 1787
1073.7 K | – | 1786
1073.8 K | 1767 | –
1073.9 K | 1767 | –
1074.1 K | – | 1786
1074.5 K | – | 1786
1074.7 K | 1766 | –
1074.9 K | – | 1786
1075.2 K | – | 1785
1075.3 K | 1766 | –
1075.4 K | – | 1785
1075.5 K | 1766 | –
1075.6 K | – | 1784
1076 K | 1765 | –
1076.2 K | – | 1784
1076.4 K | 1765 | –
1076.5 K | 1765 | –
1076.6 K | – | 1784
1076.7 K | 1765 | –
1077 K | – | 1784
1077.3 K | – | 1783
1077.4 K | 1763 | –
1077.7 K | – | 1783
1078.1 K | – | 1783
1078.2 K | 1762 | –
1078.3 K | 1762 | 1782
1078.4 K | 1761 | –
1078.7 K | – | 1782
1079.1 K | 1761 | 1782
1079.4 K | – | 1782
1079.5 K | 1760 | –
1079.7 K | 1760 | 1781
1080.2 K | – | 1781
1080.5 K | – | 1780
1080.7 K | 1760 | –
1080.8 K | 1759 | –
1081 K | – | 1780
1081.2 K | 1759 | –
1081.3 K | – | 1780
1081.4 K | 1759 | –
1081.6 K | 1758 | –
1081.7 K | 1757 | –
1081.8 K | – | 1780
1082.1 K | – | 1779
1082.4 K | 1758 | –
1082.5 K | – | 1779
1082.7 K | 1757 | –
1082.8 K | 1757 | 1779
1083.2 K | – | 1779
1083.6 K | – | 1778
1083.9 K | 1756 | 1778
1084.1 K | 1756 | –
1084.3 K | – | 1778
1084.4 K | 1756 | –
1084.8 K | – | 1778
1084.9 K | 1756 | –
1085.1 K | – | 1777
1085.4 K | 1755 | –
1085.5 K | – | 1777
1085.6 K | 1755 | –
1085.9 K | – | 1776
1086.2 K | 1754 | –
1086.4 K | 1754 | 1776
1086.6 K | – | 1776
1086.9 K | 1754 | –
1087 K | 1754 | –
1087.1 K | – | 1776
1087.6 K | – | 1775
1087.7 K | 1753 | –
1088 K | 1753 | 1775
1088.2 K | 1753 | –
1088.3 K | 1752 | –
1088.4 K | – | 1775
1088.8 K | 1752 | 1775
1089.2 K | – | 1774
1089.3 K | 1751 | –
1089.6 K | – | 1774
1089.7 K | 1751 | –
1089.9 K | – | 1774
1090.4 K | 1751 | 1774
1090.5 K | 1751 | –
1090.7 K | – | 1773
1091 K | 1750 | –
1091.1 K | – | 1773
1091.2 K | 1750 | –
1091.6 K | – | 1772
1091.7 K | 1750 | –
1092 K | – | 1772
1092.2 K | 1749 | –
1092.3 K | 1749 | 1772
1092.5 K | 1748 | –
1092.6 K | 1748 | –
1092.7 K | – | 1772
1093.2 K | – | 1771
1093.5 K | 1747 | 1771
1093.8 K | 1748 | –
1093.9 K | – | 1771
1094.2 K | 1747 | –
1094.3 K | – | 1771
1094.7 K | – | 1770
1094.8 K | 1747 | –
1094.9 K | 1747 | –
1095 K | 1746 | –
1095.1 K | – | 1770
1095.3 K | 1746 | –
1095.5 K | 1745 | 1770
1095.8 K | – | 1769
1096.1 K | 1745 | –
1096.2 K | 1745 | –
1096.3 K | – | 1769
1096.4 K | 1744 | –
1096.6 K | – | 1769
1096.7 K | 1744 | –
1097 K | – | 1769
1097.1 K | 1744 | –
1097.2 K | 1744 | –
1097.4 K | – | 1768
1097.6 K | 1744 | –
1097.9 K | – | 1768
1098.1 K | 1743 | 1767
1098.3 K | 1743 | –
1098.5 K | – | 1767
1098.6 K | 1743 | –
1098.8 K | 1742 | –
1098.9 K | 1742 | –
1099 K | – | 1767
1099.4 K | – | 1767
1099.5 K | 1742 | –
1099.6 K | 1742 | –
1099.8 K | – | 1766
1100.1 K | 1741 | –
1100.2 K | – | 1766
1100.4 K | 1741 | –
1100.6 K | 1741 | 1766
1100.9 K | 1740 | 1766
1101 K | 1741 | –
1101.2 K | 1740 | 1765
1101.7 K | 1740 | 1765
1101.8 K | 1739 | –
1101.9 K | 1739 | –
1102.1 K | – | 1765
1102.4 K | – | 1765
1102.5 K | 1739 | –
1102.9 K | – | 1764
1103.4 K | – | 1764
1103.6 K | – | 1763
1104.1 K | – | 1763
1104.5 K | – | 1763
1104.8 K | – | 1763
1105.2 K | – | 1762
1105.7 K | – | 1762
1105.9 K | – | 1762
1106.4 K | – | 1762
1106.7 K | – | 1761
1107.3 K | – | 1761
1107.7 K | – | 1761
1108 K | – | 1761
1108.5 K | – | 1760
1108.8 K | – | 1760
1109.3 K | – | 1759
1109.7 K | – | 1759
1110.1 K | – | 1759
1110.5 K | – | 1759
1111 K | – | 1758
1111.3 K | – | 1758
1111.7 K | – | 1758
1112.1 K | – | 1757
1112.6 K | – | 1757
1112.9 K | – | 1757
1113.2 K | – | 1757
1113.7 K | – | 1756
1114.2 K | – | 1756
1114.6 K | – | 1755
1114.9 K | – | 1755
1115.3 K | – | 1755
1115.7 K | – | 1754
1116.1 K | – | 1754
1116.5 K | – | 1754
1117 K | – | 1754
1117.4 K | – | 1753
1117.8 K | – | 1753
1118.3 K | – | 1753
1118.7 K | – | 1752
1119.2 K | – | 1752
1119.4 K | – | 1751
1119.9 K | – | 1751
1120.3 K | – | 1751
1120.6 K | – | 1751
1121.2 K | – | 1750
1121.5 K | – | 1750
1122 K | – | 1750
1122.4 K | – | 1750
1122.8 K | – | 1749
1123.3 K | – | 1749
